Measured values: doi:10.1101/2024.07.27.605435v1, “A fluorescent biosensor for the visualization of agmatine” (biorxiv, 2024)
pKd: −log10 of the molar value.

Molecular target: T1, PotF (Escherichia coli, UniProt P31133, A182D/S87Y)
T1 sequence (P31133 27-370 S87Y/A182D): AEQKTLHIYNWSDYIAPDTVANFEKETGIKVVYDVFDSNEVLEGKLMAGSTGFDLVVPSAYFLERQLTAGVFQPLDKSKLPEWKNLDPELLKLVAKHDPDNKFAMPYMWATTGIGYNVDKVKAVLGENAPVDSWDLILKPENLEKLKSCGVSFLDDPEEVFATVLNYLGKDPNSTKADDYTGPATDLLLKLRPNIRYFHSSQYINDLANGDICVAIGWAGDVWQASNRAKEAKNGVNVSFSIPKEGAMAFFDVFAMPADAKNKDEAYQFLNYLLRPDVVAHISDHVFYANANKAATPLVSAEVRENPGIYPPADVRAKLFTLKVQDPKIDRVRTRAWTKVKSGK
Experiment: isothermal titration calorimetry; crystal structure of the complex solved here
Format: binding

With `N=C(N)NCCCCN` [agmatine] the pKd was 6.52.
